# Experimental data: PubChem BioAssay (NCI)
#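 48-hour exposure; five concentrations; linearly interpolated endpoints. GI50 = concentration required for 50% inhibition of growth. TGI is the concentration that stops growth completely.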
# How the values were obtained:
# Assay in all cases: growth of human tumour cells (NCI), 48 h
# RXF 393 renal = test system: RXF 393 renal
# MCF7 breast = test system: MCF7 breast
# OVCAR-3 ovarian = test system: OVCAR-3 ovarian
# HT29 colon = test system: HT29 colon
# T-47D breast = test system: T-47D breast
# COLO 205 colon = test system: COLO 205 colon
# SF-268 CNS = test system: SF-268 CNS
# SNB-75 CNS = test system: SNB-75 CNS
# HCT-15 colon = test system: HCT-15 colon
# SNB-19 CNS = test system: SNB-19 CNS
# HOP-62 NSCLC = test system: HOP-62 NSCLC
# PC-3 prostate = test system: PC-3 prostate
# ACHN renal = test system: ACHN renal
# MALME-3M melanoma = test system: MALME-3M melanoma
# HCC-2998 colon = test system: HCC-2998 colon
# IGROV1 ovarian = test system: IGROV1 ovarian
# UACC-62 melanoma = test system: UACC-62 melanoma
# SK-OV-3 ovarian = test system: SK-OV-3 ovarian
# RPMI-8226 leukemia = test system: RPMI-8226 leukemia
# BT-549 breast = test system: BT-549 breast
# KM12 colon = test system: KM12 colon
# 786-0 renal = test system: 786-0 renal
# A498 renal = test system: A498 renal
# SF-295 CNS = test system: SF-295 CNS
# SK-MEL-28 melanoma = test system: SK-MEL-28 melanoma
# SK-MEL-2 melanoma = test system: SK-MEL-2 melanoma
# TK-10 renal = test system: TK-10 renal
# MDA-MB-435 = test system: MDA-MB-435
# MDA-MB-231 breast = test system: MDA-MB-231 breast
# EKVX NSCLC = test system: EKVX NSCLC
# HCT-116 colon = test system: HCT-116 colon
# NCI/ADR-RES ovarian = test system: NCI/ADR-RES ovarian
# A549 NSCLC = test system: A549 NSCLC
# SK-MEL-5 melanoma = test system: SK-MEL-5 melanoma
# HL-60(TB) leukemia = test system: HL-60(TB) leukemia
# OVCAR-4 ovarian = test system: OVCAR-4 ovarian
# CCRF-CEM leukemia = test system: CCRF-CEM leukemia
# OVCAR-5 ovarian = test system: OVCAR-5 ovarian
# NCI-H226 lung = test system: NCI-H226 lung
# SW-620 colon = test system: SW-620 colon
# NCI-H460 lung = test system: NCI-H460 lung
# UO-31 renal = test system: UO-31 renal
# UACC-257 melanoma = test system: UACC-257 melanoma
# M14 melanoma = test system: M14 melanoma
# NCI-H23 lung = test system: NCI-H23 lung
# DU-145 prostate = test system: DU-145 prostate
# SN12C renal = test system: SN12C renal
# OVCAR-8 ovarian = test system: OVCAR-8 ovarian
# NCI-H522 lung = test system: NCI-H522 lung
# LOX IMVI melanoma = test system: LOX IMVI melanoma
# SF-539 CNS = test system: SF-539 CNS
# HS 578T breast = test system: HS 578T breast
# U251 CNS = test system: U251 CNS
# HOP-92 NSCLC = test system: HOP-92 NSCLC
structure (smiles),measurement,setting,value
CN(C)CCCn1c2c(c3ccc(-c4ccn[nH]4)cc3c1=O)C(=O)c1ccccc1-2,GI50,RXF 393 renal,1.66 µM
same,TGI,RXF 393 renal,9.57 µM
same,GI50,MCF7 breast,0.0378 µM
same,TGI,MCF7 breast,1.54 µM
same,GI50,OVCAR-3 ovarian,6.09 µM
same,TGI,OVCAR-3 ovarian,21.5 µM
same,GI50,HT29 colon,0.344 µM
same,TGI,HT29 colon,1.99 µM
same,GI50,T-47D breast,0.627 µM
same,TGI,T-47D breast,20.9 µM
same,GI50,COLO 205 colon,4.92 µM
same,TGI,COLO 205 colon,23.7 µM
same,GI50,SF-268 CNS,1.85 µM
same,TGI,SF-268 CNS,15 µM
same,GI50,SNB-75 CNS,1.39 µM
same,TGI,SNB-75 CNS,17.3 µM
same,GI50,HCT-15 colon,0.0915 µM
same,TGI,HCT-15 colon,1.48 µM
same,GI50,SNB-19 CNS,0.332 µM
same,TGI,SNB-19 CNS,1.82 µM
same,GI50,HOP-62 NSCLC,0.181 µM
same,TGI,HOP-62 NSCLC,11.6 µM
same,GI50,PC-3 prostate,1.21 µM
same,TGI,PC-3 prostate,2.72 µM
same,GI50,ACHN renal,0.0948 µM
same,TGI,ACHN renal,1.93 µM
same,GI50,MALME-3M melanoma,0.931 µM
same,TGI,MALME-3M melanoma,2.47 µM
same,GI50,HCC-2998 colon,10 µM
same,TGI,HCC-2998 colon,24 µM
same,GI50,IGROV1 ovarian,0.583 µM
same,TGI,IGROV1 ovarian,2.51 µM
same,GI50,UACC-62 melanoma,0.718 µM
same,TGI,UACC-62 melanoma,18.9 µM
same,GI50,SK-OV-3 ovarian,1.21 µM
same,TGI,SK-OV-3 ovarian,11.3 µM
same,GI50,RPMI-8226 leukemia,0.115 µM
same,TGI,RPMI-8226 leukemia,1.39 µM
same,GI50,BT-549 breast,3.1 µM
same,TGI,BT-549 breast,21.1 µM
same,GI50,KM12 colon,0.527 µM
same,TGI,KM12 colon,2.08 µM
same,GI50,786-0 renal,0.218 µM
same,TGI,786-0 renal,1.82 µM
same,GI50,A498 renal,10.6 µM
same,TGI,A498 renal,30.9 µM
same,GI50,SF-295 CNS,0.354 µM
same,TGI,SF-295 CNS,13.6 µM
same,GI50,SK-MEL-28 melanoma,2.01 µM
same,TGI,SK-MEL-28 melanoma,5.65 µM
same,GI50,SK-MEL-2 melanoma,18.2 µM
same,TGI,SK-MEL-2 melanoma,35.8 µM
same,GI50,TK-10 renal,2.75 µM
same,TGI,TK-10 renal,18.8 µM
same,GI50,MDA-MB-435,10.3 µM
same,TGI,MDA-MB-435,23.7 µM
same,GI50,MDA-MB-231 breast,1.27 µM
same,TGI,MDA-MB-231 breast,2.84 µM
same,GI50,EKVX NSCLC,2.91 µM
same,TGI,EKVX NSCLC,20.6 µM
same,GI50,HCT-116 colon,0.391 µM
same,TGI,HCT-116 colon,2.23 µM
same,GI50,NCI/ADR-RES ovarian,1.48 µM
same,TGI,NCI/ADR-RES ovarian,4.76 µM
same,GI50,A549 NSCLC,0.0578 µM
same,TGI,A549 NSCLC,1.42 µM
same,GI50,SK-MEL-5 melanoma,0.481 µM
same,TGI,SK-MEL-5 melanoma,16.4 µM
same,GI50,HL-60(TB) leukemia,0.0346 µM
same,TGI,HL-60(TB) leukemia,0.771 µM
same,GI50,OVCAR-4 ovarian,1.45 µM
same,TGI,OVCAR-4 ovarian,4.06 µM
same,GI50,CCRF-CEM leukemia,0.0291 µM
same,TGI,CCRF-CEM leukemia,1.04 µM
same,GI50,OVCAR-5 ovarian,1.51 µM
same,TGI,OVCAR-5 ovarian,5.47 µM
same,GI50,NCI-H226 lung,0.273 µM
same,TGI,NCI-H226 lung,1.53 µM
same,GI50,SW-620 colon,0.204 µM
same,TGI,SW-620 colon,2.17 µM
same,GI50,NCI-H460 lung,0.0363 µM
same,TGI,NCI-H460 lung,1.55 µM
same,GI50,UO-31 renal,0.301 µM
same,TGI,UO-31 renal,1.92 µM
same,GI50,UACC-257 melanoma,12.3 µM
same,TGI,UACC-257 melanoma,29.1 µM
same,GI50,M14 melanoma,1.65 µM
same,TGI,M14 melanoma,13.9 µM
same,GI50,NCI-H23 lung,0.243 µM
same,TGI,NCI-H23 lung,1.83 µM
same,GI50,DU-145 prostate,0.197 µM
same,TGI,DU-145 prostate,10.5 µM
same,GI50,SN12C renal,0.249 µM
same,TGI,SN12C renal,10 µM
same,GI50,OVCAR-8 ovarian,0.163 µM
same,TGI,OVCAR-8 ovarian,2.27 µM
same,GI50,NCI-H522 lung,0.836 µM
same,TGI,NCI-H522 lung,18 µM
same,GI50,LOX IMVI melanoma,0.104 µM
same,TGI,LOX IMVI melanoma,1.46 µM
same,GI50,SF-539 CNS,1.04 µM
same,TGI,SF-539 CNS,6.29 µM
same,GI50,HS 578T breast,4.9 µM
same,TGI,HS 578T breast,27.1 µM
same,GI50,U251 CNS,0.183 µM
same,TGI,U251 CNS,1.57 µM
same,GI50,HOP-92 NSCLC,0.129 µM
same,TGI,HOP-92 NSCLC,10.9 µM
